Laboratory results: ChEMBL document CHEMBL1201862, “PubChem BioAssay data set” (2004)
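The compound was tested at five concentrations on cells cultured in 96-well plates, with a 48-hour exposure period. The concentration for 50% growth inhibition is given as GI50.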 Activity calls are given as the source filed them. Rule as the data show it: active = GI50 up to about 1.1 µM and inactive = higher.

Columns and labels:
Test in all cases: NCI-60 cell line screen, 48 h
KM12 = test system: KM12
NCI-H23 = test system: NCI-H23
SK-MEL-2 = test system: SK-MEL-2
CCRF-CEM = test system: CCRF-CEM
HOP-62 = test system: HOP-62
SK-OV-3 = test system: SK-OV-3
UO-31 = test system: UO-31
NCI-H522 = test system: NCI-H522
SF-539 = test system: SF-539
UACC-257 = test system: UACC-257
786-0 = test system: 786-0
U-251 = test system: U-251
SW-620 = test system: SW-620
SNB-78 = test system: SNB-78
Malme-3M = test system: Malme-3M
RPMI-8226 = test system: RPMI-8226

Measured: GI50

Cc1cc(=O)n(-c2ccccc2C)c(C)n1
inactive: KM12 > 100 µM | NCI-H23 > 100 µM | SK-MEL-2 > 100 µM | CCRF-CEM > 100 µM | HOP-62 > 100 µM | SK-OV-3 > 100 µM | UO-31 > 100 µM | NCI-H522 > 100 µM | SF-539 > 100 µM | UACC-257 > 100 µM | 786-0 > 100 µM | U-251 > 100 µM | SW-620 > 100 µM | SNB-78 > 100 µM | Malme-3M > 100 µM

NNC(=O)N/N=C1\C(=O)N(c2ccc(Cl)c(Cl)c2)C(=O)C(=O)C1c1nc2ccccc2s1 (stereo not drawn)
inactive: KM12 > 100 µM | NCI-H23 > 100 µM | SK-MEL-2 > 100 µM | CCRF-CEM 50.2 µM | HOP-62 > 100 µM | SK-OV-3 > 100 µM | UO-31 > 100 µM | NCI-H522 > 100 µM | SF-539 > 100 µM | UACC-257 > 100 µM | 786-0 > 100 µM | U-251 > 100 µM | SW-620 > 100 µM | SNB-78 > 100 µM | Malme-3M > 100 µM

COc1ccc(N2C(=O)C3CC(c4ccc(C)cc4)c4c([nH]c5ccccc45)C3C2=O)cc1 (stereo not drawn)
inactive: KM12 > 41.1 µM | NCI-H23 > 45.8 µM | SK-MEL-2 > 75.2 µM | CCRF-CEM 11 µM | HOP-62 18.1 µM | SK-OV-3 29.5 µM | UO-31 > 47.2 µM | NCI-H522 19.5 µM | SF-539 23.7 µM | UACC-257 > 100 µM | 786-0 12.2 µM | U-251 10 µM | SW-620 6.22 µM | SNB-78 > 51.4 µM | Malme-3M 15.5 µM

Cc1ccccc1C1OC(=O)c2ccccc21 (stereo not drawn)
inactive: KM12 > 100 µM | NCI-H23 > 100 µM | SK-MEL-2 > 100 µM | CCRF-CEM > 100 µM | HOP-62 > 100 µM | SK-OV-3 > 100 µM | UO-31 > 100 µM | NCI-H522 > 100 µM | SF-539 > 100 µM | 786-0 > 100 µM | U-251 > 100 µM | SW-620 > 100 µM | SNB-78 > 100 µM | Malme-3M > 100 µM

N#CCCn1[nH]c(=O)c(Cl)c(Cl)c1=O
inactive: KM12 14.5 µM | RPMI-8226 11.5 µM | NCI-H23 15.2 µM | SK-MEL-2 14.7 µM | HOP-62 > 10 µM | UO-31 18.9 µM | NCI-H522 20.2 µM | SF-539 23.3 µM | UACC-257 18.9 µM | 786-0 18.7 µM | U-251 16.6 µM | SW-620 17.8 µM | SNB-78 19.6 µM | Malme-3M 17.3 µM

c1ccc2cc(C3NCCc4nc[nH]c43)ccc2c1 (stereo not drawn)
inactive: KM12 17.3 µM | RPMI-8226 45.5 µM | NCI-H23 > 100 µM | SK-MEL-2 72.8 µM | CCRF-CEM 35.6 µM | HOP-62 > 100 µM | SK-OV-3 > 100 µM | UO-31 35.8 µM | NCI-H522 34 µM | SF-539 89.1 µM | UACC-257 26.7 µM | 786-0 41.3 µM | U-251 90.8 µM | SW-620 61.8 µM | SNB-78 > 100 µM

CCCCN(CCCC)C(=O)C(=O)C(C)C(=O)CC (stereo not drawn)
inactive: KM12 > 100 µM | RPMI-8226 > 100 µM | NCI-H23 > 100 µM | SK-MEL-2 > 100 µM | HOP-62 > 100 µM | SK-OV-3 > 100 µM | UO-31 > 100 µM | NCI-H522 > 100 µM | SF-539 > 100 µM | UACC-257 > 100 µM | 786-0 > 100 µM | U-251 > 100 µM | SW-620 > 100 µM | SNB-78 > 100 µM | Malme-3M > 100 µM
